Source: US6346402B1, “(S)-α-phenethylamine: pyruvate transaminase” (Kaneka Corporation, priority 1998, dated 2002)
“Also recorded” adds a separate entry of the source.

Assays:
[1] = tested on: (S)-α-phenethylamine:pyruvate transaminase; experiment: Substrate specificity for amino group receptors (acetophenone quantified by HPLC); type: biochemical, Pseudomonas sp. KNK425
Procedure: The mixture was reacted at 30° C. for 1 hour. The resulting reaction mixture was analyzed by high-performance liquid chromatography, to quantify acetophenone.
(§1) The assay conditions by high-performance liquid chromatography are as follows.

[2] = tested on: (S)-α-phenethylamine:pyruvate transaminase; experiment: Substrate specificity for amino group donors (dabsylated alanine quantified by HPLC); type: biochemical, Pseudomonas sp. KNK425; settings: for Relative Activity (%): substance as amino group donor, 22.5 mM, 22.5 mM pyruvic acid, pH 7.0, 30° C., 1 hour, (S)-phenethylamine = 100, Table 2
Procedure: The mixture was reacted at 30° C. for 1 hour, and thereafter immersed in boiling water for 5 minutes, to stop the reaction. The reaction mixture obtained after termination of reaction was diluted five times with 0.2M sodium carbonate buffer, and 0.2 mL of a 10 mM acetone solution of dabsyl chloride was added to 0.1 mL portion of the resulting dilution. The reaction mixture was reacted at 70° C. for 15 minutes, and after cooling, 0.1 mL of 1 N HCl was added. This reaction mixture was analyzed by high-performance liquid chromatography to quantify dabsylated alanine.
as §1
The results thereof, expressed in terms of the relative activity where an activity when using (S)-phenethylamine as an amino group donor is 100, are shown in Table 2.

[3] = tested on: (S)-α-phenethylamine:pyruvate transaminase; experiment: as above; type: biochemical, Pseudomonas sp. KNK425; settings: substance as amino group donor; for Relative Activity (%) of (S)-α-Phenethylamine:Pyruvate Transaminase [Present Invention]: Table 4; for Relative Activity (%): Table 1
[4] = tested on: ω-amino acid:pyruvate transaminase; settings: substance as amino group donor; amino group receptor pyruvic acid; Table 4; cited from earlier work
[5] = tested on: 4-aminobutyrate:2-ketoglutarate transaminase; settings: substance as amino group donor; amino group receptor 2-ketoglutaric acid; Table 4; cited from earlier work
[6] = ketone compound as amino group receptor, donor (S)-α-phenethylamine, same manner as Example 5, Table 5
[7] = compound as amino group receptor, donor (S)-α-phenethylamine, same manner as Example 5, Table 6
[8] = amino group receptor 2-ketoglutaric acid
[9] = amino group receptor pyruvic acid
[10] = substance as amino group receptor, 22.5 mM, donor 22.5 mM (S)-α-phenethylamine, pH 7.0, 30° C., 1 hour, pyruvic acid = 100, Table 3

## COc1ccc(CCC(C)=O)cc1 [4-(4′-Methoxyphenyl)-2-butanone]
[1]; [6]
  Relative Activity (%): 35%

## CC(=O)Cc1cccc(C(F)(F)F)c1 [3′-Trifluoromethylphenyl acetone]
[1]; [6]
  Relative Activity (%): 60%

## CC(=O)COc1ccccc1 [Phenoxy-2-propanone]
[1]; [7]
  Relative Activity (%): 46%

## NCCC(=O)O [β-Alanine]
[2]
  Activity of the enzyme to the substance as amino group donor (in words): does not act; also recorded: not exhibiting activity
[3]; [8]
  Relative Activity (%) of (S)-α-Phenethylamine:Pyruvate Transaminase [Present Invention]: 0%
[3]; [9]
  Relative Activity (%) of (S)-α-Phenethylamine:Pyruvate Transaminase [Present Invention]: 0%
[4]
  Relative Activity (%) of ω-Amino acid:Pyruvate Transaminase [Derived from Pseudomonas F-126]: 100%
[5]
  Relative Activity (%) of 4-Aminobutyrate:2-ketoglutarate Transaminase [Derived from Pseudomonas F-126]: 0%

## CC(C)N [Isopropylamine]
[2]
  Relative Activity (%): 0%

## O=CCCc1ccccc1 [3-Phenylpropionaldehyde]
[1]; [7]
  Relative Activity (%): 16%

## CCCCCCC(C)N (stereo not shown) [2-Octylamine]
[2]
  Relative Activity (%): 46%

## COCC(C)=O [Methoxypropanone]
[1]; [7]
  Relative Activity (%): 5%

## C[C@H](N)c1ccccc1 [(S)-α-Phenethylamine]
[2]
  Activity of the enzyme to the substance as amino group donor (in words): especially high activity; also recorded: specifically high activity; also recorded: exhibiting activity; also recorded: exhibits high activity
  Relative Activity (%): 100%
[3]; [9]
  Relative Activity (%): 100%
  Relative Activity (%) of (S)-α-Phenethylamine:Pyruvate Transaminase [Present Invention]: 100%

## C[C@@H](N)c1ccccc1 [(R)-α-Phenethylamine]
[2]
  Relative Activity (%): 3%

## NCCCc1ccccc1 [3-Phenylpropylamine]
[2]
  Relative Activity (%): 1%

## CC(=O)CCc1ccccc1 [Benzyl acetone]
[1]; [6]
  Relative Activity (%): 70%

## COc1ccc(CC(C)=O)cc1 [4′-Methoxyphenyl acetone]
[1]; [6]
  Relative Activity (%): 12%

## NCCc1ccccc1 [β-Phenethylamine]
[2]
  Relative Activity (%): 23%

## CCC(=O)Cc1ccccc1 [1-Phenyl-2-butanone]
[1]; [6]
  Relative Activity (%): 5%

## NCCCC(=O)O [4-Aminobutyric acid]
[2]
  Activity of the enzyme to the substance as amino group donor (in words): does not act
[3]; [8]
  Relative Activity (%) of (S)-α-Phenethylamine:Pyruvate Transaminase [Present Invention]: 0%
[5]
  Relative Activity (%) of 4-Aminobutyrate:2-ketoglutarate Transaminase [Derived from Pseudomonas F-126]: 100%

## CC(N)c1cccc(O)c1 (stereo not drawn) [3′-Hydroxy-α-phenethylamine]
[2]
  Relative Activity (%): 52%

## CC(=O)c1nccs1 [2-Acetylthiazole]
[1]; [6]
  Relative Activity (%): 4%

## COc1ccc(CC(C)N)cc1OC (stereo not shown) [1-(3,4-Dimethoxyphenyl)-2-aminopropane]
[2]
  Relative Activity (%): 18%

## NC(CCC(=O)O)C(=O)O (racemic) [DL-Glutamic Acid]
[2]
  Activity of the enzyme to the substance as amino group donor (in words): does not act
[3]; [9]
  Relative Activity (%): 0%

## NCc1ccccc1 [Benzylamine]
[2]
  Relative Activity (%): 13%

## CCCCCC(C)N (stereo not shown) [2-Heptylamine]
[2]
  Relative Activity (%): 28%

## CCCCN [n-Butylamine]
[2]
  Relative Activity (%): 2%

## CC(=O)c1ccc(Cl)cc1 [4′-Chloroacetophenone]
[1]; [6]
  Relative Activity (%): 22%

## CC(N)CCc1ccccc1 (stereo not shown) [1-Phenyl-3-aminobutane]
[2]
  Relative Activity (%): 80%

## NC1CCCCC1 [Cyclohexylamine]
[2]
  Relative Activity (%): 1%

## O=CCc1ccccc1 [Phenylacetaldehyde]
[1]; [7]
  Relative Activity (%): 37%

## CCCC(=O)C(=O)O [2-Keto-valeric acid]
[1]; [10]
  Relative Activity (%): 1.5%

## Cl.N [Ammonium Chloride]
[2]
  Activity of the enzyme to the substance as amino group donor (in words): does not also act
[3]; [9]
  Relative Activity (%): 0%

## CCC(C)N (stereo not shown) [2-Butylamine]
[2]
  Relative Activity (%): 1%

## O=C(O)CCC(=O)C(=O)O [2-Ketoglutaric acid]
[1]
  Activity of the enzyme to the substance as amino group receptor (in words): did not exhibit an activity; also recorded: does not act
[1]; [10]
  Relative Activity (%): 0%

## NCCCCC(N)C(=O)O (racemic) [DL-Lysine]
[2]
  Activity of the enzyme to the substance as amino group donor (in words): not exhibiting activity; also recorded: does not act
[3]; [9]
  Relative Activity (%): 0%

## COc1ccc(CC(C)=O)cc1OC [3′,4′-Dimethoxyphenyl acetone]
[1]; [6]
  Relative Activity (%): 38%

## NCCS(=O)(=O)O [Taurine]
[2]
  Activity of the enzyme to the substance as amino group donor (in words): does not act; also recorded: not exhibiting activity
[3]; [9]
  Relative Activity (%) of (S)-α-Phenethylamine:Pyruvate Transaminase [Present Invention]: 0%
[4]
  Relative Activity (%) of ω-Amino acid:Pyruvate Transaminase [Derived from Pseudomonas F-126]: 132%

## CCCC(C)N (stereo not shown) [2-Pentylamine]
[2]
  Relative Activity (%): 4%

## CCCCCN [Amylamine]
[2]
  Relative Activity (%): 5%

## CC(=O)c1ccncc1 [4-Acetylpyridine]
[1]; [6]
  Relative Activity (%): 8%

## CC(=O)c1cccc(O)c1 [3′-Hydroxyacetophenone]
[1]; [6]
  Relative Activity (%): 6%

## CC(=O)c1ccccn1 [2-Acetylpyridine]
[1]; [6]
  Relative Activity (%): 42%

## CCCN [n-Propylamine]
[2]
  Relative Activity (%): 0%

## NCC(=O)O [Glycine]
[2]
  Activity of the enzyme to the substance as amino group donor (in words): does not act
[3]; [9]
  Relative Activity (%): 0%

## CC(=O)CC(=O)c1ccccc1 [Benzoyl acetone]
[1]; [6]
  Relative Activity (%): 12%

## CC(=O)c1cnccn1 [Acetylpyrazine]
[1]; [6]
  Relative Activity (%): 100%

## NCCCCN [Putrescine]
[2]
  Activity of the enzyme to the substance as amino group donor (in words): does not act; also recorded: not exhibiting activity
[3]; [8]
  Relative Activity (%) of (S)-α-Phenethylamine:Pyruvate Transaminase [Present Invention]: 0%
[3]; [9]
  Relative Activity (%) of (S)-α-Phenethylamine:Pyruvate Transaminase [Present Invention]: 0%
[4]
  Relative Activity (%) of ω-Amino acid:Pyruvate Transaminase [Derived from Pseudomonas F-126]: 18%
[5]
  Relative Activity (%) of 4-Aminobutyrate:2-ketoglutarate Transaminase [Derived from Pseudomonas F-126]: 8%

## CC(=O)C(=O)O [Pyruvic acid]
[1]
  Activity of the enzyme to the substance as amino group receptor (in words): high activity; also recorded: exhibiting activity; also recorded: exhibits activity
[1]; [7]
  Relative Activity (%): 100%
[1]; [10]
  Relative Activity (%): 100%

## COc1cccc(C(C)=O)c1 [3′-Methoxyacetophenone]
[1]; [6]
  Relative Activity (%): 4%

## O=CC(=O)O [Glyoxylic acid]
[1]
  Activity of the enzyme to the substance as amino group receptor (in words): high activity; also recorded: exhibiting activity; also recorded: exhibits activity
[1]; [10]
  Relative Activity (%): 100%

## CC(=O)c1cccnc1 [3-Acetylpyridine]
[1]; [6]
  Relative Activity (%): 14%

## CC(=O)c1ccco1 [2-Acetylfuran]
[1]; [6]
  Relative Activity (%): 3%

## N[C@@H](CC(=O)O)C(=O)O [L-Aspartic Acid]
[2]
  Activity of the enzyme to the substance as amino group donor (in words): does not act
[3]; [9]
  Relative Activity (%): 0%

## CC(=O)c1ccccc1O [2′-Hydroxyacetophenone]
[1]; [6]
  Relative Activity (%): 24%

## CCC(=O)C(=O)O [2-Ketobutyric acid]
[1]; [10]
  Relative Activity (%): 5.8%
